Data: US11000491B2, “Amino-aryl-benzamide compounds and methods of use thereof” (HEPANOVA, INC., priority 2017, dated 2021)
Read-outs that look alike come from different tables or passages of the source.

Assays:
Assay type in all cases: cell-based
SREBP-2 = SREBP-2 expression in cultured primary human hepatocytes; conditions: procedure of Example 6, read-out: SREBP-2 mRNA inhibition (EC50)
Summary of the method: (§1)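 Primary human hepatocytes in culture exposed to a range of HPN-01 derivative concentrations; SREBP-1 and SREBP-2 mRNA expression then measured to assess inhibition.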

SREBP-1 = SREBP-1 expression in cultured primary human hepatocytes; conditions: procedure of Example 6, read-out: SREBP-1 mRNA inhibition (EC50)
Summary of the method: as §1

Huh7 cells = assay: LD content in Huh7 cells pre-treated with insulin, Oil-Red-O staining, absorbance OD 540 nm; conditions: procedure of Example 3, read-out: LD content inhibition (EC50)
Summary of the method: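 Huh7 cells, mock-treated or pre-treated with 1 mM insulin, were then exposed to compound at the indicated amounts. Lipid droplets stained with Oil Red O and quantified by absorbance at OD 540 nm.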

[1] = Homo sapiens, Huh-7, Huh7 cells

| Compound | EC50 (SREBP-2; Homo sapiens, Hepatocyte) [nM] | EC50 (SREBP-1; Homo sapiens, Hepatocyte) [nM] | EC50 (Huh7 cells; [1]) [nM] | EC50 (SREBP-2) [nM] | EC50 (SREBP-1) [nM] | EC50 (Huh7 cells; Huh7 cells) [nM] | EC50 (SREBP-2; Hepatocyte) [nM] | EC50 (SREBP-1; Hepatocyte) [nM] |
| --- | --- | --- | --- | --- | --- | --- | --- | --- |
| NC(=O)c1cc(Nc2ccc(Cl)cc2)cc(-c2ccc(S(N)(=O)=O)cc2)c1N [HPN-01312, 2-amino-5-((4-chlorophenyl)amino)-4′-sulfamoyl-[1,1′-biphenyl]-3-carboxamide] | 10300 | 7530 | 1450 |  |  |  |  |  |
| NC(=O)c1cc(Oc2ccc(Cl)cc2)cc(-c2ccc(S(N)(=O)=O)cc2)c1N [HPN-01313, 2-amino-5-(4-chlorophenoxy)-4′-sulfamoyl-[1,1′-biphenyl]-3-carboxamide] | 9410 | 5510 | 1760 |  |  |  |  |  |
| NC(=O)c1cc(Sc2ccc(Cl)cc2)cc(-c2ccc(S(N)(=O)=O)cc2)c1N [HPN-01314, 2-amino-5-((4-chlorophenyl)thio)-4′-sulfamoyl-[1,1′-biphenyl]-3-carboxamide] | 7710 | 4570 | 1180 |  |  |  |  |  |
| NC(=O)c1cc(Nc2cccc(Cl)c2)cc(-c2ccc(S(N)(=O)=O)cc2)c1N [HPN-01315, 2-amino-5-((3-chlorophenyl)amino)-4′-sulfamoyl-[1,1′-biphenyl]-3-carboxamide] | 14000 | 7720 | 2610 |  |  |  |  |  |
| NC(=O)c1cc(Oc2cccc(Cl)c2)cc(-c2ccc(S(N)(=O)=O)cc2)c1N [HPN-01316, 2-amino-5-(3-chlorophenoxy)-4′-sulfamoyl-[1,1′-biphenyl]-3-carboxamide] | 11200 | 8020 | 5920 |  |  |  |  |  |
| NC(=O)c1cc(Nc2cccc(C(=O)O)c2)cc(-c2ccc(S(N)(=O)=O)cc2)c1N [HPN-01317, 3-((6-amino-5-carbamoyl-4′-sulfamoyl-[1,1′-biphenyl]-3-yl)amino)benzoic acid] | 4320 | 3350 | 580 |  |  |  |  |  |
| NC(=O)c1cc(Oc2cccc(C(=O)O)c2)cc(-c2ccc(S(N)(=O)=O)cc2)c1N [HPN-01318, 3-((6-amino-5-carbamoyl-4′-sulfamoyl-[1,1′-biphenyl]-3-yl)oxy)benzoic acid] | 1160 | 770 | 310 |  |  |  |  |  |
| COC(=O)c1cccc(Nc2cc(C(N)=O)c(N)c(-c3ccc(S(N)(=O)=O)cc3)c2)c1 [HPN-01319, methyl 3-((6-amino-5-carbamoyl-4′-sulfamoyl-[1,1′-biphenyl]-3-yl)amino)benzoate] | 3420 | 4800 | 630 |  |  |  |  |  |
| COC(=O)c1cccc(Oc2cc(C(N)=O)c(N)c(-c3ccc(S(N)(=O)=O)cc3)c2)c1 [HPN-01320, methyl 3-((6-amino-5-carbamoyl-4′-sulfamoyl-[1,1′-biphenyl]-3-yl)oxy)benzoate] | 2160 | 1100 | 690 |  |  |  |  |  |
| NC(=O)c1cc(C2CCC(Br)C2)cc(-c2ccc(S(N)(=O)=O)cc2)c1N (stereo not drawn) [HPN-01321, 2-amino-5-(3-bromocyclopentyl)-4′-sulfamoyl-[1,1′-biphenyl]-3-carboxamide] | 5310 | 3060 | 1760 |  |  |  |  |  |
| NC(=O)c1cc(C2CCC(Br)CC2)cc(-c2ccc(S(N)(=O)=O)cc2)c1N (stereo not drawn) [HPN-01322, 2-amino-5-(4-bromocyclohexyl)-4′-sulfamoyl-[1,1′-biphenyl]-3-carboxamide] | 2550 | 1620 | 830 |  |  |  |  |  |
| NC(=O)c1cc(-c2ccc(Cl)cc2)cc(Nc2ccc(S(N)(=O)=O)cc2)c1N [HPN-01402, 4-amino-4′-chloro-5-((4-sulfamoylphenyl)amino)-[1,1′-biphenyl]-3-carboxamide] | 2500 | 1180 | 600 |  |  |  |  |  |
| NC(=O)c1cc(-c2ccc(Cl)cc2)cc(Sc2ccc(S(N)(=O)=O)cc2)c1N [HPN-01403] |  |  |  | 3090 | 1960 | 360 |  |  |
| NC(=O)c1cc(-c2ccc(Br)cc2)cc(Nc2ccc(S(N)(=O)=O)cc2)c1N [HPN-01404, 4-amino-4′-bromo-5-((4-sulfamoylphenyl)amino)-[1,1′-biphenyl]-3-carboxamide] | 3390 | 1970 | 640 |  |  |  |  |  |
| NC(=O)c1cc(-c2ccc(Cl)cc2)cc(-c2ccc(OP(=O)(O)O)cc2)c1N [HPN-01405, 6′-amino-5′-carbamoyl-4″-chloro-[1,1′:3′,1″-terphenyl]-4-yl dihydrogen phosphate] |  |  | 760 |  |  |  | 3980 | 2500 |
| CC(=O)Nc1ccc(-c2cc(-c3ccc(Cl)cc3)cc(C(N)=O)c2N)cc1 [HPN-01407, 4″-acetamido-4’-amino-4-chloro-[1,1′:3′,1″-terphenyl]-5′-carboxamide] | 9690 | 5410 | 1070 |  |  |  |  |  |
| CCC(=O)Nc1ccc(-c2cc(-c3ccc(Cl)cc3)cc(C(N)=O)c2N)cc1 [HPN-01408, 4′-amino-4-chloro-4″-propionamido-[1,1′:3′,1″-terphenyl]-5′-carboxamide] | 4370 | 2550 | 1500 |  |  |  |  |  |
| CCCC(=O)Nc1ccc(-c2cc(-c3ccc(Cl)cc3)cc(C(N)=O)c2N)cc1 [HPN-01409, 4′-amino-4″-butyramido-4-chloro-[1,1′:3′,1″-terphenyl]-5′-carboxamide] | 1420 | 1050 | 500 |  |  |  |  |  |
| NC(=O)c1cc(-c2ccc(Cl)cc2)cc(Oc2cccc(-c3nn[nH]n3)c2)c1N [HPN-01410, 5-(3-(2H-tetrazol-5-yl)phenoxy)-4-amino-4′-chloro-[1,1′-biphenyl]-3-carboxamide] | 4080 | 2090 | 580 |  |  |  |  |  |
| CCCNS(=O)(=O)c1cccc(Oc2cc(-c3ccc(Cl)cc3)cc(C(N)=O)c2N)c1 [HPN-01411, 4-amino-4′-chloro-5-(3-(N-propylsulfamoyl)phenoxy)-[1,1′-biphenyl]-3-carboxamide] | 2840 | 1590 | 940 |  |  |  |  |  |
| NC(=O)c1cc(-c2ccc(Cl)cc2)cc(Oc2cccc(S(N)(=O)=O)c2)c1N [HPN-01412, 4-amino-4′-chloro-5-(3-sulfamoylphenoxy)-[1,1′-biphenyl]-3-carboxamide] | 6110 | 3090 | 2070 |  |  |  |  |  |
| NC(=O)c1cc(-c2ccc(Cl)cc2)cc(Nc2cccc(S(N)(=O)=O)c2)c1N [HPN-01413, 4-amino-4′-chloro-5-((3-sulfamoylphenyl)amino)-[1,1′-biphenyl]-3-carboxamide] | 2700 | 1520 | 740 |  |  |  |  |  |
| NC(=O)c1cc(-c2ccc(Cl)cc2)cc(Sc2cccc(S(N)(=O)=O)c2)c1N [HPN-01414, 4-amino-4′-chloro-5-((3-sulfamoylphenyl)thio)-[1,1′-biphenyl]-3-carboxamide] | 9860 | 3940 | 1570 |  |  |  |  |  |
| NC(=O)c1cc(-c2ccc(Br)cc2)cc(Oc2cccc(S(N)(=O)=O)c2)c1N [HPN-01415, 4-amino-4′-bromo-5-(3-sulfamoylphenoxy)-[1, 1′-biphenyl]-3-carboxamide] | 6450 | 2350 | 660 |  |  |  |  |  |
| NC(=O)c1cc(-c2ccc(Br)cc2)cc(-c2ccc(OP(=O)(O)O)cc2)c1N [HPN-01416, 6′-amino-4″-bromo-5′-carbamoyl-[1,1′:3′,1″-terphenyl]-4-yl dihydrogen phosphate] |  |  | 1510 |  |  |  | 4010 | 3020 |
| N=C(N)Nc1ccc(-c2cc(-c3ccc(Cl)cc3)cc(C(N)=O)c2N)cc1 [HPN-01417, 4′-amino-4-chloro-4″-guanidino-[1,1′:3′,1″-terphenyl]-5′-carboxamide] | 4920 | 3150 | 1260 |  |  |  |  |  |
